Data published in patent US20140057895A1, “INDAZOLE- AND PYRROLOPYRIDINE-DERIVATIVE AND PHARMACEUTICAL USE THEREOF” (priority 2011, published 2014).

Columns and labels:
[1] = target: T1, Human 5-HT4 receptor (5-HT4b) (Homo sapiens, UniProt Q13639); experiment: Test Example 3: Human 5-HT4 receptor binding assay, membranes of CHO-K1 cells stably expressing 5-HT4b receptors (Table 99); details: mean value of each group
T1 construct: expressed in transfected cells; membrane preparation
Method in brief: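 Membranes from CHO-K1 cells stably expressing 5-HT4b incubated with 0.1 nM [3H]-GR113808 in 50 mM Hepes pH 7.4, 37 °C, 30 min; nonspecific binding with 30 μM serotonin. Bound label collected by filtration and scintillation counting; IC50 from inhibition of specific binding.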

human 5-HT4b receptor = target: T2, human 5-HT4b receptor (Homo sapiens, UniProt Q13639); experiment: Test Example 4: Serotonin 4 (5-HT4) receptor agonist activity assay, cAMP HTRF in CHO cells (Table 100); format: cell-based; details: mean value; for Emax: CHO, 0.25 h, intrinsic activity, maximal activity of 5-HT defined as 100%, read-out: IA (%); for EC50: concentration showing 50% of IA
T2 construct: expressed in transfected cells; host or cells: CHO cells (G418 selection)
Method in brief: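 CHO cells expressing human 5-HT4b receptor, serum-reduced for 1–2 h, were suspended in Hanks/HEPES pH 7.4 and exposed to compound for 15 min at 31° C. cAMP detected by HTRF (cryptate/d2, 1 h RT, 620/665 nm). EC50 and intrinsic activity relative to maximal 5-HT response (10^−11 to 10^−7 M) set at 100%.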

T2 sequence (Q13639 whole entry): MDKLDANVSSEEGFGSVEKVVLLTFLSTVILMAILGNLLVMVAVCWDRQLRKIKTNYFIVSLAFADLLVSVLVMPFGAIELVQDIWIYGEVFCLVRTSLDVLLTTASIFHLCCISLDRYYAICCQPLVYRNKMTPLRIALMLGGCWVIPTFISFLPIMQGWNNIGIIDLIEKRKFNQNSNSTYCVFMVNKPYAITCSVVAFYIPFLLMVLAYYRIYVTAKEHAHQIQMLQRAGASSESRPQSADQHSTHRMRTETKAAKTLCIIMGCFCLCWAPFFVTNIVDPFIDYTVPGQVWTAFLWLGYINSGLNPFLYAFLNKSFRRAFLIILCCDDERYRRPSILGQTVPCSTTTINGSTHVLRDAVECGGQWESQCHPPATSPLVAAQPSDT
T1 sequence (Q13639 whole entry): as above

Question: What does the source list for `COCCNC1CC(c2nc(-n3nc(C(C)C)c4cccc(F)c43)no2)C1` (stereo not drawn) [Example 605, 3-{3-[7-fluoro-3-(propan-2-yl)-1H-indazol-1-yl]-1,2,4-oxadiazol-5-yl}-N-(2-methoxyethyl)cyclobutanamine]?
Answer: IC50 [1]: < 0.02 µM; Emax (human 5-HT4b receptor): 113%; EC50 (human 5-HT4b receptor): 0.0023 µM

Question: Which IC50 [1] does the source give for `CC(C)c1nn(-c2noc(C3CC(NCC4CCOCC4)C3)n2)c2c(F)cccc12` (stereo not drawn) [Example 610, 3-{3-[7-fluoro-3-(propan-2-yl)-1H-indazol-1-yl]-1,2,4-oxadiazol-5-yl}-N-(tetrahydro-2H-pyran-4-ylmethyl)cyclobutanamine] here?
Answer: < 0.02 µM

Question: And the Emax (human 5-HT4b receptor)?
Answer: 103%

Question: And the EC50 (human 5-HT4b receptor)?
Answer: 0.0091 µM

Question: Which results are given for `CC(=O)NCCN(C1CCOCC1)C1CC(c2nc(-n3nc(C(C)C)c4cccc(F)c43)no2)C1` (stereo not drawn) [Example 611, N-{2-[(3-{3-[7-fluoro-3-(propan-2-yl)-1H-indazol-1-yl]-1,2,4-oxadiazol-5-yl}cyclobutyl)(tetrahydro-2H-pyran-4-yl)amino]ethyl}acetamide]?
Answer: IC50 [1]: 0.0959 µM; Emax (human 5-HT4b receptor): 94%; EC50 (human 5-HT4b receptor): 0.0422 µM

Question: With `COCCN(CC1CCCO1)C1CC(c2nc(-n3nc(C(C)C)c4cccc(F)c43)no2)C1` (stereo not drawn) [Example 612, 3-{3-[7-fluoro-3-(propan-2-yl)-1H-indazol-1-yl]-1,2,4-oxadiazol-5-yl}-N-(2-methoxyethyl)-N-(tetrahydrofuran-2-ylmethyl)cyclobutanamine] as the compound, how does the IC50 [1] read?
Answer: 0.0205 µM

Question: And the Emax (human 5-HT4b receptor)?
Answer: 82%

Question: What about the EC50 (human 5-HT4b receptor) of the same compound?
Answer: 0.0146 µM

Question: Which results are given for `COCCN(C1CCOCC1)[C@H]1C[C@@H](c2nc(-n3nc(C(C)C)c4cccc(F)c43)no2)C1` [Example 614, N-(cis-3-{3-[7-fluoro-3-(propan-2-yl)-1H-indazol-1-yl]-1,2,4-oxadiazol-5-yl}cyclobutyl)-N-(2-methoxyethyl)tetrahydro-2H-pyran-4-amine]?
Answer: IC50 [1]: < 0.02 µM; Emax (human 5-HT4b receptor): 93%; EC50 (human 5-HT4b receptor): 0.0109 µM

Question: What does the source list for `CC(C)c1nn(-c2noc([C@H]3CC[C@@H](NCCC4CN(S(C)(=O)=O)C4)CC3)n2)c2c(F)cccc12` [Example 617, cis-4-{3-[7-fluoro-3-(propan-2-yl)-1H-indazol-1-yl]-1,2,4-oxadiazol-5-yl}-N-{2-[1-(methylsulfonyl)azetidin-3-yl]ethyl}cyclohexanamine]?
Answer: IC50 [1]: 0.0243 µM; Emax (human 5-HT4b receptor): 104%; EC50 (human 5-HT4b receptor): 0.0084 µM

Question: `CC(C)c1nn(-c2noc([C@H]3CC[C@@H](NCC4CCN(S(C)(=O)=O)CC4)CC3)n2)c2c(F)cccc12` [Example 618, cis-4-{3-[7-fluoro-3-(propan-2-yl)-1H-indazol-1-yl]-1,2,4-oxadiazol-5-yl}-N-{[1-(methylsulfonyl)piperidin-4-yl]methyl}cyclohexanamine] was tested. Which IC50 [1] did it give?
Answer: < 0.02 µM

Question: What about the Emax (human 5-HT4b receptor) of the same compound?
Answer: 32%

Question: And the EC50 (human 5-HT4b receptor)?
Answer: 0.0062 µM
